From paper PMC6895912 (Cancers, 2019)
Like-named read-outs stand apart in the source and are kept apart here.

Experiments:
[1] = tested on: drug-naïve and drug-resistant prostate cancer cell lines (six different cell lines); assay: MTT cell viability (antiproliferative) assay, GI50; format: cell-based; details: Homo sapiens, 168 h, read-out: GI50 (concentration required to inhibit cell growth by 50%), range over the six cell lines tested, 7 days
Text: (§1) The new NGGAs (VNPP414 and VNPP433-3β) were identified from in vitro anti-proliferative activities of our in-house compounds assessed in several PC cell lines, including LNCaP, C4-2B, and CWR22Rv1 (22Rv1). […] It was recently reported that treatment of AR-expressing bladder cancer cell lines with enzalutamide induced up-regulation of tumor suppressor, p53, p21 and PTEN, and down-regulation of several oncogenic genes, such as c-myc, cyclin D1, and cyclin E [38]. […] We note that these cell-cycle studies were conducted in LNCaP cells. Inhibition of colony formations (clonogenicity assays) was also assessed by treating the parental CWR-R1 cells and two drug-resistant counterparts with Gal, VNPP433-3β, or ENZ.
(A) Comparative GI50 values of Gal, NGGAs, and enzalutamide (ENZ) in drug-naïve-/-resistant prostate cancer cells. (B) Gal and NGGAs induce G1 cell cycle arrest in LNCaP cells. (C) VNPP414 and VNPP433-3β deplete the cell cycle regulator, cyclin D1, and upregulate p21; “+” indicates specific treatments. (D) Gal cause dose-dependent depletion of cyclin D1. […] (F) Quantification of colony formation units (CFU) in drug-naive/resistant cells. Colony assays were repeated three times and colonies counted in four quadrants of the wells. […]
MTT assays were performed as described in our previous publications. […] Data was analyzed with GraphPad prism 4 software.

AR-V7 = target: T1, AR-V7 (Homo sapiens, UniProt P10275); assay: Protein level decrease by western blot, dose-response in CWR22Rv1 cells; format: cell-based; details: for times more effective (than Gal) in degrading AR-V7: from EC50 values
T1 construct: compound treatments (0–7.5 µM) of CWR22Rv1 cells for 72 h followed by western blot analysis of cells lysates; endogenous in cells; host or cells: CWR22Rv1
T1 sequence (P10275 1-644 isoform P10275-3): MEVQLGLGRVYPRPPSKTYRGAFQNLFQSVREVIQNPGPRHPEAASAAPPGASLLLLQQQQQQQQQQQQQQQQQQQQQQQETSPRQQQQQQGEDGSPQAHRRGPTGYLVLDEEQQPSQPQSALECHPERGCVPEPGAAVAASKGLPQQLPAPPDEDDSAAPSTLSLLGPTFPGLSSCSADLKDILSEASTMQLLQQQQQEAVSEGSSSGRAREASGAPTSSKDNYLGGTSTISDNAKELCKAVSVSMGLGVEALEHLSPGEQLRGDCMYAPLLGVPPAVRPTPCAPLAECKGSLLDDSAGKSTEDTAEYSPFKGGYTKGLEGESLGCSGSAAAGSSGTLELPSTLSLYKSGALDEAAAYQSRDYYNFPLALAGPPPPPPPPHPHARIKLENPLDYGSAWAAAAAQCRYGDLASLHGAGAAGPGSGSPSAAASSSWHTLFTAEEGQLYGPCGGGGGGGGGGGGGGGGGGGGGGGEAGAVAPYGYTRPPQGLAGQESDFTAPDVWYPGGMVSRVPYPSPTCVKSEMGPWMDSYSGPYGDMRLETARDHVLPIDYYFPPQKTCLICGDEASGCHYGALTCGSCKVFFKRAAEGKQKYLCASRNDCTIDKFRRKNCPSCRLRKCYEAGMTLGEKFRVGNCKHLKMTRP
Text: (§2) Figure 4 Impact of Gal and NGGAs on AR/AR-V7 and Mnk1/2-eIF4E signaling pathways. (A) Western blot showing the effects of Gal and VNPT55 (55) on Mnk1, Mnk2, and peIF4E. […] (D) Western blot showing dose-dependent effect of Gal on Mnk1, Mnk2, BMI-1, and Snail1 in drug-resistant CWR-R1(10E) cells. […] Note: the numbers in parentheses in Figure 4B are concentrations of the agents in µM.
(§3) We further determined the effects of lead NGGAs on f-AR, AR-V7 and Mnk1 protein levels in CWR22Rv1 cells.
(§4) Cells were lysed with radioimmunoprecipitation assay (RIPA) buffer (Sigma, St. Louis, MO, USA), supplemented with 1X protease inhibitors (Roche, Indianapolis, IN, USA), phosphatase inhibitors (Thermo Scientific, Waltham, MA, USA), 1 mmol/L EDTA and 1 mmol/L PMSF (Sigma).

fAR = fAR (Homo sapiens, UniProt P10275); assay: as above; format: cell-based
Sequence of fAR (P10275 whole entry): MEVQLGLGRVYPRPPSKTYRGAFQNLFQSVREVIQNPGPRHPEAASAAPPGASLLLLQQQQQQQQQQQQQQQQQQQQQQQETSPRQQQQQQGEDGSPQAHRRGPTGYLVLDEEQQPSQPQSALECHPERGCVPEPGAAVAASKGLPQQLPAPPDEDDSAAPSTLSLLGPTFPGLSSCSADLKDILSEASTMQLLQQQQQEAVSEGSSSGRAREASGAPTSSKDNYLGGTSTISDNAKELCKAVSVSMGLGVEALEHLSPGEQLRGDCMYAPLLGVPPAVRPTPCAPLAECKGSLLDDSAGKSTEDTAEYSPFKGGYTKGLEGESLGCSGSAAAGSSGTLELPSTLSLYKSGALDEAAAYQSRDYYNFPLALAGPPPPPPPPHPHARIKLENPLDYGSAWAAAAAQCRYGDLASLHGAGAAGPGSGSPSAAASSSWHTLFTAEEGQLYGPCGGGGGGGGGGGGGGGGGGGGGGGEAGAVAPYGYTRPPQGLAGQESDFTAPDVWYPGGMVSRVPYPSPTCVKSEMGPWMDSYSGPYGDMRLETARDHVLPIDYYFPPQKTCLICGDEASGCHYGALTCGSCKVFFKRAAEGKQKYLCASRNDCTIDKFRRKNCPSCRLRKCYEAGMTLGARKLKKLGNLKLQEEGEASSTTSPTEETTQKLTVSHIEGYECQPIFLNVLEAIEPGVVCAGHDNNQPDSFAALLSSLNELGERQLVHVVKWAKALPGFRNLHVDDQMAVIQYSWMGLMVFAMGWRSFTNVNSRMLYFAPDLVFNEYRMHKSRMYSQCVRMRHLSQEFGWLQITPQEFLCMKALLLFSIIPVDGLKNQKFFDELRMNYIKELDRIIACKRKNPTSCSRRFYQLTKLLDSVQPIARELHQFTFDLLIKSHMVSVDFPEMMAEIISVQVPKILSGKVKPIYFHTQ
Text: as §2, §3, §4

LNCaP cells = assay: Cell cycle analysis (G1 arrest); format: cell-based, human; details: 2.5 µM as effective as Gal at 20 µM
Text: as §1
(A) Comparative GI50 values of Gal, NGGAs, and enzalutamide (ENZ) in drug-naïve-/-resistant prostate cancer cells. (B) Gal and NGGAs induce G1 cell cycle arrest in LNCaP cells. (C) VNPP414 and VNPP433-3β deplete the cell cycle regulator, cyclin D1, and upregulate p21; “+” indicates specific treatments. (D) Gal cause dose-dependent depletion of cyclin D1. (E) Unlike ENZ, Gal and VNPP433-3β inhibit colony formation of drug-naïve/-resistant cells in vitro. […] (F) Quantification of colony formation units (CFU) in drug-naive/resistant cells. Colony assays were repeated three times and colonies counted in four quadrants of the wells. […]

Row | Compound | GI50 [1] [µM] | times more effective (than Gal) in degrading AR-V7 (AR-V7) [times] | DC50 (AR-V7; read-out: AR-V7 EC50, 0–7.5 µM, 72 h, western blot) [µM] | EC50 (fAR; 0–7.5 µM, 72 h, read-out: fAR EC50) [µM] | improved potency over Gal in G1 cell cycle arrest (LNCaP cells) [fold] | DC50 (AR-V7; 0–7.5 µM, 72 h, western blot, read-out: AR-V7 EC50) [µM] | EC50 (fAR; read-out: fAR EC50, 0–7.5 µM, 72 h) [µM]
1 | C[C@]12CC[C@H](n3ccnc3)CC1=CCC1C2CC[C@]2(C)C(n3cnc4ccccc43)=CCC12 (stereo partly drawn) [VNPP433-3β] | 1.12 to 2.54 | 3.7 | 1.34 ± 0.33 | 0.58 ± 0.002 | ≥ 8 | – | –
2 | C[C@]12CC[C@H](OCc3ccncc3)CC1=CCC1C2CC[C@]2(C)C(n3cnc4ccccc43)=CCC12 (stereo partly drawn) [VNPP414] | – | 3.9 | – | – | ≥ 8 | 1.26 ± 0.05 | 0.84 ± 0.002
